Tests used:
Assay in all cases: MIC in microtitre plates
Assay type in all cases: cell-based
[1] = system: Candida albicans ATCC 10259; conditions: ATCC10259, 48 hours at 37° C., ≦20% growth
Protocol: (§1) Mycological slant agar for the preculture of moulds. The test substances are predissolved in dimethyl sulfoxide (DMSO) and tested in a dilution series of 1:2. The test organisms are cultured overnight in CASO bouillon and rinsed off with 10 ml of 0.85% sodium chloride solution (+0.1% TritonX-100). The test organisms are adjusted to an organism count of 1–5×10^6 CFU/ml with 0.85% sodium chloride solution. The test substances are prepipetted into microtitre plates in an amount of 8 μl per well. Previously diluted organism suspensions are diluted 1:100 in CASO bouillon and added to the test substances in an amount of 192 μl per well. The test batches are incubated for 48 hours at 37° C. After incubation, the growth is determined by reference to the turbidity of the test batches (optical density) at 620 nm in a microplate reader. The minimum inhibitory concentration (MIC value) is the concentration of substance at which (compared with the growth of the control) an appreciable inhibition of the growth (≦20% growth) of the test organisms is ascertained. One microtitre plate is used for each test organism and substance concentration. All substances are tested in duplicate.

[2] = system: Trichoderma longibrachiatum DSM 768; conditions: DSM768, 48 hours at 37° C., ≦20% growth
Protocol: as §1

[3] = system: Trichophyton mentagrophytes ATCC 9533; conditions: ATCC9533, 48 hours at 37° C., ≦20% growth
Protocol: as §1

[4] = system: Enterococcus hirae ATCC 10541; conditions: ATCC10541, 48 hours at 37° C., ≦20% growth
Protocol: as §1

[5] = system: Trichophyton rubrum DSM 4167; conditions: DSM4167, 48 hours at 37° C., ≦20% growth
Protocol: as §1

[6] = system: Salmonella choleraesuis ATCC 9184; conditions: Salmonella enterica, 48 hours at 37° C., ≦20% growth
Protocol: as §1

[7] = system: Micrococcus luteus ATCC 9341; conditions: ATCC9341, 48 hours at 37° C., ≦20% growth
Protocol: as §1

P. ovale ATCC 14521 = conditions: Pityrosporum ovale, ATCC14521, 48 hours at 37° C., ≦20% growth
Protocol: as §1

[8] = system: Streptococcus mutans ATCC 25175; conditions: ATCC25175, 48 hours at 37° C., ≦20% growth
Protocol: as §1

[9] = system: S. epidermidis ATCC 12228; conditions: Staphylococcus epidermidis, ATCC12228, 48 hours at 37° C., ≦20% growth
Protocol: as §1

[10] = system: Epidermophyton floccosum DSM 10709; conditions: DSM10709, 48 hours at 37° C., ≦20% growth
Protocol: as §1

[11] = system: Corynebacterium xerosis ATCC 373; conditions: ATCC373, 48 hours at 37° C., ≦20% growth
Protocol: as §1

[12] = system: Klebsiella pneumoniae ATCC 4352; conditions: ATCC4352, 48 hours at 37° C., ≦20% growth
Protocol: as §1

MIC [1]: 6.25 µg/mL | MIC [2]: 50 µg/mL | MIC [3]: 100 µg/mL | MIC [4]: 3.12 µg/mL | MIC [5]: 25 µg/mL | MIC [7]: 3.12 µg/mL | MIC (P. ovale ATCC 14521): > 25 µg/mL | MIC [8]: 3.12 µg/mL | MIC [9]: 3.12 µg/mL | MIC [10]: 12.5 µg/mL | MIC [11]: 3.12 µg/mL | MIC [12]: > 100 µg/mL
SMILES: CCCCCCCC[N+](CC)(CC)CCCNC(=O)CCc1cc(-n2nc3ccccc3n2)c(O)c(C(C)(C)C)c1.[Br-] [compound of formula (108)]
MIC [6]: > 100 µg/mL

— US7129198B1, “Use of benzotriazole UV absorbers” (Ciba Specialty Chemicals Corporation, priority 1999, dated 2006)
